In patent US8653263B2 (Janssen Pharmaceutica, priority 2009, dated 2014):

Each compound was assayed against human orexin-2 receptor (Homo sapiens (Human), UniProt O43614) (assay: Human orexin 2 receptor radioligand binding ([3H]-EMPA competition)). Conditions: HEK293 cells stably expressing human orexin-2 receptor; [3H]-EMPA 5 nM final; apparent Ki=IC50/(1+C/Kd), Kd=2 nM; read-out: OR 2 Ki.
human orexin-2 receptor, sequence (O43614 whole entry): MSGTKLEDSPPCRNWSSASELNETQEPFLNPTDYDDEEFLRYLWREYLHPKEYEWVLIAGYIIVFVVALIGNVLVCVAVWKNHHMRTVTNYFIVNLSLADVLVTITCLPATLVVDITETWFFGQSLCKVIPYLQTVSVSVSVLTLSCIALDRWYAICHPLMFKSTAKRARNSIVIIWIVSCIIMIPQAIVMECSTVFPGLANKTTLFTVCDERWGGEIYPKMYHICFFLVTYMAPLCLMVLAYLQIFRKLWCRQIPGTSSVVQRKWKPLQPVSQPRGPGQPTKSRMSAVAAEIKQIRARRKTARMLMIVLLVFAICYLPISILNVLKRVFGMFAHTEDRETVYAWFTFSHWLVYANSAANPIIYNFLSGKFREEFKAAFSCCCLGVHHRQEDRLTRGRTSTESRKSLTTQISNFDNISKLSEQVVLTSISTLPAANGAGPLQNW

| Ki [nM] | SMILES |
| --- | --- |
| 28 | Cc1cc(N2CC3CN(C(=O)c4c(F)cccc4-n4nccn4)CC3C2)nc(C(F)(F)F)n1 (centres unmarked) [Example 98, 2-{[2-Fluoro-6-(2H-1,2,3-triazol-2-yl)phenyl]carbonyl}-5-[6-methyl-2-(trifluoromethyl)pyrimidin-4-yl]octahydropyrrolo[3,4-c]pyrrole] |
| 64 | Cc1cc(C)nc(N2CC3CN(C(=O)c4cccc5ccccc45)CC3C2)n1 (centres unmarked) [Example 93, 2-(4,6-Dimethylpyrimidin-2-yl)-5-(naphthalen-1-ylcarbonyl)octahydropyrrolo[3,4-c]pyrrole] |
| 7 | Cc1noc(-c2ccccc2C(=O)N2CC3CN(c4nc(C)c(C)c(C)n4)CC3C2)n1 (centres unmarked) [Example 309, 2-{[2-(3-Methyl-1,2,4-oxadiazol-5-yl)phenyl]carbonyl}-5-(4,5,6-trimethylpyrimidin-2-yl)octahydropyrrolo[3,4-c]pyrrole] |
| 184 | O=C(c1ccccc1-n1nccn1)N1CC2CN(c3nccc(-c4ccco4)n3)CC2C1 (centres unmarked) [Example 151, 2-(4-Furan-2-ylpyrimidin-2-yl)-5-{[2-(2H-1,2,3-triazol-2-yl)phenyl]carbonyl}octahydropyrrolo[3,4-c]pyrrole] |
| 25 | Cc1cc(N2CC3CN(C(=O)c4ccccc4-n4nccn4)CC3C2)nc(C(F)(F)F)n1 (centres unmarked) [Example 97, 2-[6-Methyl-2-(trifluoromethyl)pyrimidin-4-yl]-5-{[2-(2H-1,2,3-triazol-2-yl)phenyl]carbonyl}octahydropyrrolo[3,4-c]pyrrole] |
| 10 | COc1ccc(C(=O)N2CC3CN(c4ncc(Cl)c(C)n4)CC3C2)c(-n2nccn2)c1 (centres unmarked) [Example 378, 2-(5-Chloro-4-methylpyrimidin-2-yl)-5-{[4-methoxy-2-(2H-1,2,3-triazol-2-yl)phenyl]carbonyl}octahydropyrrolo[3,4-c]pyrrole] |
| 340 | Cc1cc(C)nc(N2CC3CN(C(=O)c4cc(Cl)ccc4C)CC3C2)n1 (centres unmarked) [Example 223, 2-[(5-Chloro-2-methylphenyl)carbonyl]-5-(4,6-dimethylpyrimidin-2-yl)octahydropyrrolo[3,4-c]pyrrole] |
| 9 | COc1ccc(C(=O)N2CC3CN(c4nc(C)c(F)c(C)n4)CC3C2)c(-n2nccn2)c1 (centres unmarked) [Example 379, 2-(5-Fluoro-4,6-dimethylpyrimidin-2-yl)-5-{[4-methoxy-2-(2H-1,2,3-triazol-2-yl)phenyl]carbonyl}octahydropyrrolo[3,4-c]pyrrole] |
| 2270 | Cc1cc(C)nc(N2CC3CN(C(=O)c4c(F)cccc4F)CC3C2)n1 (centres unmarked) [Example 278, (2,6-Difluorophenyl)(5-(4,6-dimethylpyrimidin-2-yl)hexahydropyrrolo[3,4-c]pyrrol-2(1H)-yl)methanone] |
| 780 | COc1ccc(C(=O)N2CC3CN(c4nc5ccc(OC)cc5s4)CC3C2)c(OC)c1 (centres unmarked) [Example 171, 2-{5-[(2,4-Dimethoxyphenyl)carbonyl]hexahydropyrrolo[3,4-c]pyrrol-2(1H)-yl}-6-methoxy-1,3-benzothiazole] |
| 39 | COc1ccnc(N2CC3CN(C(=O)c4ccccc4-n4nccn4)CC3C2)n1 (centres unmarked) [Example 156, 2-(4-Methoxypyrimidin-2-yl)-5-{[2-(2H-1,2,3-triazol-2-yl)phenyl]carbonyl}octahydropyrrolo[3,4-c]pyrrole] |
| 238 | Cc1ccc(-n2nccn2)c(C(=O)N2CC3CN(c4cncc(C)n4)CC3C2)c1 (centres unmarked) [Example 100, 2-(6-Methylpyrazin-2-yl)-5-{[5-methyl-2-(2H-1,2,3-triazol-2 yl)phenyl]carbonyl}octahydropyrrolo[3,4-c]pyrrole] |
| 24 | Cc1cc(N2CC3CN(C(=O)c4c(F)cccc4-c4ncccn4)CC3C2)nc(C(F)(F)F)n1 (centres unmarked) [Example 117, 2-[(2-Fluoro-6-pyrimidin-2-ylphenyl)carbonyl]-5-[6-methyl-2-(trifluoromethyl)pyrimidin-4-yl]octahydropyrrolo[3,4-c]pyrrole] |
| 50 | Cc1cc(N2CC3CN(C(=O)c4cc(F)ccc4-c4ncccn4)CC3C2)nc(C(F)(F)F)n1 (centres unmarked) [Example 204, (5-Fluoro-2-pyrimidin-2-yl-phenyl)-[5-(6-methyl-2-trifluoromethyl-pyrimidin-4-yl)-hexahydro-pyrrolo[3,4-c]pyrrol-2-yl]-methanone] |

Further lines, the compound ahead of its results:

| SMILES | Ki [nM] |
| --- | --- |
| O=C(c1ccccc1-n1cccc1)N1CC2CN(c3cnc4ccccc4n3)CC2C1 (centres unmarked) [Example 27, 2-[5-{[2-(1H-Pyrrol-1-yl)phenyl]carbonyl}hexahydropyrrolo[3,4-c]pyrrol-2(1H)-yl]quinoxaline] | 740 |
| Cc1ccc(-c2ccccc2C(=O)N2CC3CN(c4cnc5ccccc5n4)CC3C2)cc1 (centres unmarked) [Example 193, (4′-Methyl-biphenyl-2-yl)-(5-quinoxalin-2-yl-hexahydro-pyrrolo[3,4-c]pyrrol-2-yl)-methanone] | 1160 |
| Cc1cc(C)nc(N2CC3CN(C(=O)c4nc(C)sc4-c4ccccc4F)CC3C2)n1 (centres unmarked) [Example 132, 2-(4,6-Dimethylpyrimidin-2-yl)-5-{[5-(2-fluorophenyl)-2-methyl-1,3-thiazol-4-yl]carbonyl}octahydropyrrolo[3,4-c]pyrrole] | 125 |
| Cc1cc(C)nc(N2CC3CN(C(=O)c4ccccc4-n4cccn4)CC3C2)n1 (centres unmarked) [Example 67, 2-(4,6-Dimethylpyrimidin-2-yl)-5-{[2-(1H-pyrazol-1-yl)phenyl]carbonyl}octahydro-pyrrolo[3,4-c]pyrrole] | 119 |
| O=C(c1ccccc1-c1ccc(C(F)(F)F)cc1)N1CC2CN(c3nccc(-c4ccccc4)n3)CC2C1 (centres unmarked) [Example 196, [5-(4-Phenyl-pyrimidin-2-yl)-hexahydro-pyrrolo[3,4-c]pyrrol-2-yl]-(4′-trifluoromethyl-biphenyl-2-yl)-methanone] | 10000 |
| COc1ccc(C(=O)N2CC3CN(c4cnc5ccccc5n4)CC3C2)c(C)c1 (centres unmarked) [Example 197, (4-Methoxy-2-methyl-phenyl)-(5-quinoxalin-2-yl-hexahydro-pyrrolo[3,4-c]pyrrol-2-yl)-methanone] | 1160 |
| Cc1nc(N2CC3CN(C(=O)c4ccccc4-n4nccn4)CC3C2)ncc1F (centres unmarked) [Example 290, 2-(5-Fluoro-4-methylpyrimidin-2-yl)-5-{[2-(2H-1,2,3-triazol-2-yl)phenyl]carbonyl}octahydropyrrolo[3,4-c]pyrrole] | 19 |
| COc1ccc(C(=O)N2CC3CN(c4nc(C)cc(C)n4)CC3C2)c(-n2ccnn2)c1 (centres unmarked) [Example 289] | 1800 |
| COc1ccc(C(=O)N2CC3CN(c4nc5ccc(Cl)cc5s4)CC3C2)c(OC)c1 (centres unmarked) [Example 163, 6-Chloro-2-{5-[(2,4-dimethoxyphenyl)carbonyl]hexahydropyrrolo[3,4-c]pyrrol-2(1H)-yl}-1,3-benzothiazole] | 380 |
| Cc1cc(C)nc(N2CC3CN(C(=O)c4ccccc4-c4nccn4C)CC3C2)n1 (centres unmarked) [Example 39, [5-(4,6-Dimethyl-pyrimidin-2-yl)-hexahydro-pyrrolo[3,4-c]pyrrol-2-yl]-[2-(1-methyl-1H-imidazol-2-yl)-phenyl]-methanone] | 9000 |
| O=C(c1ccccc1-n1cccn1)N1CC2CN(c3cnc4ccccc4n3)CC2C1 (centres unmarked) [Example 18, 2-[5-{[2-(1H-Pyrazol-1-yl)phenyl]carbonyl}hexahydropyrrolo[3,4-c]pyrrol-2(1H)-yl]quinoxaline] | 519 |
| Cc1cc(C)nc(N2CC3CN(C(=O)c4cnoc4-c4ccccc4)CC3C2)n1 (centres unmarked) [Example 80, 2-(4,6-Dimethylpyrimidin-2-yl)-5-[(5-phenylisoxazol-4-yl)carbonyl]octahydro-pyrrolo[3,4-c]pyrrole] | 314 |
| Cc1noc(-c2ccccc2C(=O)N2CC3CN(c4ncc(F)c(C)n4)CC3C2)n1 (centres unmarked) [Example 310, 2-(5-Fluoro-4-methylpyrimidin-2-yl)-5-{[2-(3-methyl-1,2,4-oxadiazol-5-yl)phenyl]carbonyl}octahydropyrrolo[3,4-c]pyrrole] | 64 |
| COc1cc(OC)nc(N2CC3CN(C(=O)c4cc(F)ccc4-c4ncccn4)CC3C2)n1 (centres unmarked) [Example 71, 2-(4,6-Dimethoxypyrimidin-2-yl)-5-[(5-fluoro-2-pyrimidin-2-ylphenyl)carbonyl]octahydropyrrolo[3,4-c]pyrrole] | 1000 |
| Cc1cc(C)nc(N2CC3CN(C(=O)c4cccc(F)c4-c4ccccn4)CC3C2)n1 (centres unmarked) [Example 367, (5-(4,6-Dimethylpyrimidin-2-yl)hexahydropyrrolo[3,4-c]pyrrol-2(1H)-yl)(3-fluoro-2-(pyridin-2-yl)phenyl)methanone] | 15 |
| O=C(c1cc(F)ccc1-c1ncccn1)N1CC2CN(c3nccc(-c4ccccc4)n3)CC2C1 (centres unmarked) [Example 113, 2-[(5-Fluoro-2-pyrimidin-2-ylphenyl)carbonyl]-5-(4-phenylpyrimidin-2-yl)octahydropyrrolo[3,4-c]pyrrole] | 50 |
| Cc1cnc(C)c(N2CC3CN(C(=O)c4ccccc4-c4ncn[nH]4)CC3C2)n1 (centres unmarked) [Example 213, [5-(3,6-Dimethyl-pyrazin-2-yl)-hexahydro-pyrrolo[3,4-c]pyrrol-2-yl]-[2-(2H-[1,2,4]triazol-3-yl)-phenyl]-methanone] | 56 |
| Cc1cccc(-c2c(F)cccc2C(=O)N2CC3CN(c4nc(C)cc(C)n4)CC3C2)n1 (centres unmarked) [Example 370, (5-(4,6-Dimethylpyrimidin-2-yl)hexahydropyrrolo[3,4-c]pyrrol-2(1H)-yl)(3-fluoro-2-(6-methylpyridin-2-yl)phenyl)methanone] | 84 |
| Cc1nc(N2CC3CN(C(=O)c4ccccc4-c4ncn(C)n4)CC3C2)nc(C)c1C (centres unmarked) [Example 311, 2-{[2-(1-Methyl-1H-1,2,4-triazol-3-yl)phenyl]carbonyl}-5-(4,5,6-trimethylpyrimidin-2-yl)octahydropyrrolo[3,4-c]pyrrole] | 7 |
| COc1cc(OC)nc(N2CC3CN(C(=O)c4nc(C)sc4-c4ccccc4F)CC3C2)n1 (centres unmarked) [Example 142, 2-(4,6-Dimethoxypyrimidin-2-yl)-5-{[5-(2-fluorophenyl)-2-methyl-1,3-thiazol-4-yl]carbonyl}octahydropyrrolo[3,4-c]pyrrole] | 315 |
| CCCOc1cccnc1C(=O)N1CC2CN(c3cnc4ccccc4n3)CC2C1 (centres unmarked) [Example 347, (3-Propoxypyridin-2-yl)(5-(quinoxalin-2-yl)hexahydropyrrolo[3,4-c]pyrrol-2(1H)-yl)methanone] | 3100 |
